Measured values from patent publication US5571942A, “Ring-substituted 2-amino-1,2,3,4-tetrahydronaphthalenes and 3-aminochromanes” (Eli Lilly and Company, priority 1995, dated 1996).

target: T1, 5-HT1A receptors (Rattus norvegicus, UniProt P19327); assay: in vivo lowering of brain 5-HIAA levels (5-HT1A agonist activity); set-up: species or system rat (male Sprague-Dawley); settings: sc, one hour after treatment
T1 construct: from tissue; host or cells: cerebral cortex (crude synaptosomal membranes) of male Sprague-Dawley rats
T1 sequence (P19327 1-422): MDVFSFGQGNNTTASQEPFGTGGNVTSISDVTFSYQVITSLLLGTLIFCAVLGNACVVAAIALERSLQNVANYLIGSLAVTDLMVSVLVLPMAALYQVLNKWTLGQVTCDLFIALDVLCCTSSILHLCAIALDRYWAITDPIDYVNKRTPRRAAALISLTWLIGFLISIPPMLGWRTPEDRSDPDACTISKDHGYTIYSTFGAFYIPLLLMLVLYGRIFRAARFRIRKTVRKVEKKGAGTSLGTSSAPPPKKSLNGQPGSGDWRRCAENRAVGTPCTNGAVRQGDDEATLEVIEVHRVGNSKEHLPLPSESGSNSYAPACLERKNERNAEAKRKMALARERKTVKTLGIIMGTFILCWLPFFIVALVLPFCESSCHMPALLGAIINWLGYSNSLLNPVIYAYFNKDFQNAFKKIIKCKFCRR
Method: (§1) Compounds of this invention were also examined for their in vivo effects on brain 5-HIAA and serum corticosterone levels. Male Sprague-Dawley rats weighting 150-200 g were administered subcutaneously or orally with aqueous solutions of the test compound. One hour after treatment, the rats were decapitated and trunk blood collected. The blood was allowed to clot and then was centrifuged to separate the serum. The concentration of corticosterone in the serum was determined by the spectrofluorometric method of Solem, J. H.; Brinck-Johnsen, T., Scand. J. Clin. Invest. [Suppl. 80], 17, 1 (1965). The whole brains from the decapitated rats were quickly removed, frozen on dry ice, and stored at -15° C. 5-HIAA concentrations were measured by liquid chromatography with electrochemical detection as described by Fuller, R. W.; Snoddy, H. D.; Perry, K. W., Life Sci. 40, 1921 (1987).
(§2) The results provided in columns 3-5 are indicative of 5-HT1A agonist activity.

SMILES | 5-HIAA MED (minimum effective dose lowering brain 5-HIAA levels) [mg/kg]
CCCN(CCC)C1CCc2cccc(-c3nocc3C)c2C1 (stereo not drawn) [Example 26, 2-Di-n-propylamino-8-(4-methylisoxazol-3-yl)-1,2,3,4-tetrahydronaphthalene] | 1.0
CCCN(CCC)C1CCc2cccc(-c3noc4ccccc34)c2C1 (stereo not drawn) [Example 17, 2-Di-n-propylamino-8-(indoxazin-3-yl)-1,2,3,4-tetrahydronaphthalene] | > 1.0
CCCN(CCC)C1CCc2cccc(-c3cscn3)c2C1 (stereo not drawn) [Example 11, 2-Di-n-propylamino-8-(thiazol-4-yl)-1,2,3,4-tetrahydronaphthalene] | > 1.0

target: T1, 5-HT1A receptors; assay: in vitro binding: inhibition of 3H-8-OH-DPAT binding to synaptosomal membranes from rat cerebral cortex; set-up: species or system rat (male Sprague-Dawley); settings: 3H-8-OH-DPAT 2 nM, 37° C., 10 min, pH 7.4
Excerpt: Sites specifically labeled by tritiated 8-hydroxy-2-dipropylamino-1,2,3,4-tetrahydronaphthalene (^3 H-8-OH-DPAT) have been identified as 5-HT1A receptors. This general procedure is set forth in Wong et al., J. Neural Transm. 71:207-218 (1988).
Male Sprague-Dawley rats (110-150 g) from Harlan Industries (Cumberland, Ind.) were fed a Purina Chow ad libitum for at least 3 days before being used in the studies. Rats were killed by decapitation. The brains were rapidly removed, and the cerebral cortices were dissected out at 4° C.
Brain tissues were homogenized in 0.32M sucrose. After centrifugation at 1000×g for 10 min and then at 17000×g for 20 min, a crude synaptosomal fraction was sedimented. The pellet was suspended in 100 vol of 50 mM Tris-HCl, pH 7.4, incubated at 37° C. for 10 min, and centrifuged at 50000×g for 10 min. The process was repeated and the final pellet was suspended in ice-chilled 50 mM Tris-HCl, pH 7.4.
Binding of ^3 H-8-OH-DPAT was performed according to the previously described method [Wong et al., J. Neural Transm. 64:251-269 (1985)]. Briefly, synaptosomal membranes isolated from cerebral cortex were incubated at 37° C. for 10 min. in 2 ml of 50 mM Tris-HCl, pH 7.4; 10 mM pargyline; 0.6 mM ascorbic acid; 5 mM CaCl2; 2 nM ^3 H-8-OH-DPAT and 0.1 to 1000 nm of the compound of interest. Binding was terminated by filtering samples under reduced pressure through glass fiber (GFB) filters. The filters were washed twice with 5 ml of ice cold buffer and placed in scintillation vials with 10 ml of PCS (Amersham/Searle) scintillation fluid. Radioactivity was measured with a liquid scintillation spectrometer. Unlabeled 8-OH-DPAT at 10 μM was also included in separate samples to establish non-specific binding. Specific binding of ^3 H-8-OH-DPAT is defined as the difference of radioactivity bound in the absence and in the presence of 10 μM unlabeled 8-OH-DPAT.
as §2

SMILES | IC50 [nM]
CCCN(CCC)C1CCc2cccc(-c3nocc3C)c2C1 (stereo not drawn) [Example 26, 2-Di-n-propylamino-8-(4-methylisoxazol-3-yl)-1,2,3,4-tetrahydronaphthalene] | 6.4
CCCN(CCC)C1CCc2cccc(-c3noc4ccccc34)c2C1 (stereo not drawn) [Example 17, 2-Di-n-propylamino-8-(indoxazin-3-yl)-1,2,3,4-tetrahydronaphthalene] | 5
CCCN(CCC)C1CCc2cccc(-c3cscn3)c2C1 (stereo not drawn) [Example 11, 2-Di-n-propylamino-8-(thiazol-4-yl)-1,2,3,4-tetrahydronaphthalene] | 4.9

target: T1, 5-HT1A receptors; assay: in vivo elevation of serum corticosterone levels (5-HT1A agonist activity); set-up: species or system rat (male Sprague-Dawley); settings: sc, one hour after treatment
Method: as §1, §2

SMILES | Corticosterone MED (minimum effective dose elevating serum corticosterone levels) [mg/kg]
CCCN(CCC)C1CCc2cccc(-c3nocc3C)c2C1 (stereo not drawn) [Example 26, 2-Di-n-propylamino-8-(4-methylisoxazol-3-yl)-1,2,3,4-tetrahydronaphthalene] | > 1.0
CCCN(CCC)C1CCc2cccc(-c3noc4ccccc34)c2C1 (stereo not drawn) [Example 17, 2-Di-n-propylamino-8-(indoxazin-3-yl)-1,2,3,4-tetrahydronaphthalene] | > 1.0
CCCN(CCC)C1CCc2cccc(-c3cscn3)c2C1 (stereo not drawn) [Example 11, 2-Di-n-propylamino-8-(thiazol-4-yl)-1,2,3,4-tetrahydronaphthalene] | > 1.0
